Measured values published in ChEMBL document CHEMBL2016510 (J Med Chem, 2012).
Each block holds one molecule with its values, some of them ahead of it.

Key:
Aorta = experiment: Vasorelaxant activity in potassium depolarized guinea pig aortic strip assessed as inhibition of calcium-induced contraction at 10^-4 M; assay type: functional, Cavia porcellus; design: scale not given: the % may be the effect or the level left
[1] = […] chronotropic activity in guinea pig spontaneously beating right atria assessed as decrease in atrial rate at 10^-4 M relative to control; assay type: functional, Cavia porcellus, Cardiac atrium; design: scale not given: the % may be the effect or the level left
[2] = Negative inotropic activity in guinea pig left atria assessed as decrease of 1 Hz current-induced developed tension at 5 x 10^-7 M relative to control; assay type: functional, Cavia porcellus, Cardiac atrium; design: scale not given: the % may be the effect or the level left
[3] = Negative inotropic activity in guinea pig left atria assessed as decrease of 1 Hz current-induced developed tension; assay type: functional, tissue-based; details: Cavia porcellus, Cardiac atrium
[4] = Negative chronotropic activity in guinea pig spontaneously beating right atria assessed as decrease in atrial rate; assay type: functional; details: Cavia porcellus, Cardiac atrium
[5] = Antiarrhythmic activity in guinea pig left atria assessed as increase of 1 Hz-induced alternating current arrhythmia at 10^-4 M after 60 mins relative to control; assay type: functional; details: Cavia porcellus, Cardiac atrium, 1 h
[6] = Antiarrhythmic activity in guinea pig left atria assessed as increase of 1 Hz-induced alternating current arrhythmia after 60 mins; assay type: functional, tissue-based; details: Cavia porcellus, Cardiac atrium, 1 h
HepG2 = experiment: Cytotoxicity against human HepG2 cells assessed as cell viability after 2 hrs by MTT assay; assay type: cell-based; details: HepG2, 2 h
[7] = molecular target: T1, Sodium channel protein type 5 subunit alpha (Homo sapiens, UniProt Q14524); experiment: Blockade of human full-length NaV1.5 expressed in HEK293 cells co-transfected with pCD8-IRES-hbeta1 assessed as 0.1 Hz of half-maximal tonic-induced channel current at -120 mV holding potential after 36 to 72 hrs by patch clamp assay; assay type: cell-based
T1 sequence (Q14524 whole entry): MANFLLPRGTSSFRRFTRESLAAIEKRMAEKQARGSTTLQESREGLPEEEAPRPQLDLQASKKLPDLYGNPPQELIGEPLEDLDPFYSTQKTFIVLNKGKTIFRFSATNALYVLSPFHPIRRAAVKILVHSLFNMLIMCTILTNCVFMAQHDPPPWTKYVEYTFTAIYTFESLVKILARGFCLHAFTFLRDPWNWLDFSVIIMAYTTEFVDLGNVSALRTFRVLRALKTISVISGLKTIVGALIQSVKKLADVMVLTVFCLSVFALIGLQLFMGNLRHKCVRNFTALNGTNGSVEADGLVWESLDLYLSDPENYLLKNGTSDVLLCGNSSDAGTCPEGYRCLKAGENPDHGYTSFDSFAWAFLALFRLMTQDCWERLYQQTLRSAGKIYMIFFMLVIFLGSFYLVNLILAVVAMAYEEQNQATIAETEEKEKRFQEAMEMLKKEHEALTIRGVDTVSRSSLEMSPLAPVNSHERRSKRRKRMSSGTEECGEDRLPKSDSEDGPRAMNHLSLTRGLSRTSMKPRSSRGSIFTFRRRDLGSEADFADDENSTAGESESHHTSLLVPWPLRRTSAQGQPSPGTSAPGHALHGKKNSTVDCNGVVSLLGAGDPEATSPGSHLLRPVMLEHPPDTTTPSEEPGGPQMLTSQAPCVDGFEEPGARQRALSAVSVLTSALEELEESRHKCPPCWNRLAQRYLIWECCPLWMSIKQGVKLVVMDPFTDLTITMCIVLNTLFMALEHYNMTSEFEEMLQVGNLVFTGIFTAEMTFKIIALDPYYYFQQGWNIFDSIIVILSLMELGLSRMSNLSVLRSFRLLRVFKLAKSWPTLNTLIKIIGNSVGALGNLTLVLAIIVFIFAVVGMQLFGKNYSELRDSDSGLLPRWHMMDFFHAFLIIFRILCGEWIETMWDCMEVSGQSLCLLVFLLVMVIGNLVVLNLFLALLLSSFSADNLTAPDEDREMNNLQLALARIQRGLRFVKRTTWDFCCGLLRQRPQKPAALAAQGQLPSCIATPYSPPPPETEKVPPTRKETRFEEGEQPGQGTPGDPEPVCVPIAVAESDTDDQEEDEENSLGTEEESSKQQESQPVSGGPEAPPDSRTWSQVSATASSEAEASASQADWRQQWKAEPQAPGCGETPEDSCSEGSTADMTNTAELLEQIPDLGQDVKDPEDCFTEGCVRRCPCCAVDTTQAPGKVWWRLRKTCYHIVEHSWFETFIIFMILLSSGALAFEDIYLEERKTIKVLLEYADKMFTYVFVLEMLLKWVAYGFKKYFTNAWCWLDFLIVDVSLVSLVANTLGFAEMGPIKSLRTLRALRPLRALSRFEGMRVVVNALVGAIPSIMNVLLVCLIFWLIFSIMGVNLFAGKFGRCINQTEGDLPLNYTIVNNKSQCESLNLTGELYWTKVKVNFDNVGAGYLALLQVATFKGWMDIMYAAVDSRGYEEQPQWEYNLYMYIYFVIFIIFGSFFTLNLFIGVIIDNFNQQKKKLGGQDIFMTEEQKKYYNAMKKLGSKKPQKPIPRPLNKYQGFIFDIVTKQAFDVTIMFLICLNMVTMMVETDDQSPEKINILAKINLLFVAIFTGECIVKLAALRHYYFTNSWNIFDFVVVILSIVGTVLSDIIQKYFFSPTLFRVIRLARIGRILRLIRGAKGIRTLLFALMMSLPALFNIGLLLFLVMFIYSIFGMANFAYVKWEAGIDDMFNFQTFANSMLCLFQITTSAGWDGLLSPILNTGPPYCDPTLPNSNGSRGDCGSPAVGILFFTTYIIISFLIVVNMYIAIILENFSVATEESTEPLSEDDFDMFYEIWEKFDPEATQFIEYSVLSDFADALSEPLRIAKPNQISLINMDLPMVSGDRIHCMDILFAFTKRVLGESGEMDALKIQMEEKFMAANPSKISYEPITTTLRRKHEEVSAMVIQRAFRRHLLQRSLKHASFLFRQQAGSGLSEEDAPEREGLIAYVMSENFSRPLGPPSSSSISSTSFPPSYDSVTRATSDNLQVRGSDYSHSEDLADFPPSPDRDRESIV

Caco-2 [8] = experiment: Apparent permeability from apical to basolateral side in human Caco2 cells after 21 days by UV spectroscopy; assay type: ADME, cell-based
[9] = molecular target: T1, Sodium channel protein type 5 subunit alpha; experiment: Blockade of human full-length NaV1.5 expressed in HEK293 cells co-transfected with pCD8-IRES-hbeta1 assessed as 10 Hz of use-dependent-induced channel current at -120 mV holding potential after 36 to 72 hrs by patch clamp assay; assay type: cell-based
[10] = Negative chronotropic activity in guinea pig spontaneously beating right atria assessed as decrease in atrial rate at 10^-4 M relative to control; assay type: functional, Cavia porcellus, Cardiac atrium; design: scale not given: the % may be the effect or the level left
Caco-2 [11] = experiment: Apparent permeability from basolateral to apical side in human Caco2 cells after 21 days by UV spectroscopy; assay type: ADME, cell-based
[12] = Negative inotropic activity in guinea pig left atria assessed as decrease of 1 Hz current-induced developed tension at 5 x 10^-5 M relative to control; assay type: functional, Cavia porcellus, Cardiac atrium; design: scale not given: the % may be the effect or the level left
Caco-2 [13] = experiment: Efflux ratio of permeability from basolateral to apical side to apical to basolateral side in human Caco2 cells after 21 days by UV spectroscopy; assay type: ADME, cell-based
Mus musculus = experiment: Neurotoxicity in mouse assessed as deffect in motor coordination at 25 to 50 mg/kg, po after 15 to 45 mins by rotarod test; assay type: toxicity, organism-based; design: route oral; details: in vivo
[14] = Antiarrhythmic activity in guinea pig left atria assessed as increase of 1 Hz-induced alternating current arrhythmia at 5 x 10^-5 M after 60 mins relative to control; assay type: functional; details: Cavia porcellus, Cardiac atrium, 1 h
[15] = Negative chronotropic activity in guinea pig spontaneously beating right atria assessed as decrease in atrial rate at 5 x 10^-5 M relative to control; assay type: functional, Cavia porcellus, Cardiac atrium; design: scale not given: the % may be the effect or the level left
[16] = Negative inotropic activity in guinea pig left atria assessed as decrease of 1 Hz current-induced developed tension at 10^-4 M relative to control; assay type: functional, Cavia porcellus, Cardiac atrium; design: scale not given: the % may be the effect or the level left
[17] = […] chronotropic activity in guinea pig spontaneously beating right atria assessed as decrease in atrial rate at 5 x 10^-6 M relative to control; assay type: functional, Cavia porcellus, Cardiac atrium; design: scale not given: the % may be the effect or the level left
[18] = Negative inotropic activity in guinea pig left atria assessed as decrease of 1 Hz current-induced developed tension at 10^-6 M relative to control; assay type: functional, Cavia porcellus, Cardiac atrium; design: scale not given: the % may be the effect or the level left

EC50 [3]: 0.014 µM
SMILES: CCN(CC)CCOC(=O)c1ccc(N)cc1 [PROCAINE]
Activity (Aorta): 3% | Activity [1]: 9% | Activity [2]: 92%

EC50 [3]: 0.045 µM
SMILES: Cc1cccc(C)c1OCC(C)N (racemic) [MEXILETINE]
EC30 [4]: 0.014 µM | Activity (Aorta): 5% | Emax at 100 µM [5]: 64% | EC50 [6]: 11.6 µM | EC50 (HepG2): 2000 µM

Papp (Caco-2 [8]): 300.6 ×10⁻⁶ cm/s | Papp (Caco-2 [11]): 142.5 ×10⁻⁶ cm/s | Ratio (Caco-2 [13]): 2.1 | EC50 [3]: 0.098 µM
SMILES: Cc1ccc(O)c(C)c1OCC(C)N (racemic)
IC50 [7]: 174 µM | Activity (Aorta): 19% | Emax at 100 µM [5]: 72% | IC50 [9]: 30 µM | Activity [10]: 39% | EC50 [6]: 10.2 µM | EC50 (HepG2): > 2000 µM | Activity [12]: 96% | Activity (Mus musculus): Non-toxic

SMILES: CCN(CC)CCNC(=O)c1ccc(N)cc1 [PROCAINAMIDE]
Emax at 50 µM [14]: 11%

SMILES: C=C[C@H]1CN2CC[C@H]1C[C@@H]2[C@@H](O)c1ccnc2ccc(OC)cc12 [QUINIDINE]
EC30 [4]: 3.99 µM | Activity (Aorta): 30% | Emax at 50 µM [14]: 69% | Activity [15]: 86% | Activity [12]: 71%

SMILES: CCCCc1oc2ccccc2c1C(=O)c1cc(I)c(OCCN(CC)CC)c(I)c1 [AMIODARONE]
Activity (Aorta): 3% | Emax at 100 µM [5]: 10% | Activity [10]: 72% | Activity [16]: 30%

EC50 [3]: 0.017 µM
SMILES: CCN(CC)CC(=O)Nc1c(C)cccc1C [LIDOCAINE]
Activity (Aorta): 14% | Activity [17]: 29% | Emax at 50 µM [14]: 34% | Activity [18]: 88%
